Several values for one entry are separate records, joined by “and”; a condition that tells them apart may be missing. Equal values may be shown once. Read-outs that look alike come from different tables or passages of the source.

Experiment [1] relates to RAW 264.7 cells. The experiment can be described thus: NO assay (nitrite by Griess reagent in LPS-stimulated cells). Format: cell-based, murine. How it is done:
RAW 264.7 cells were seeded in 96-well plates (5 × 10^4 cells/well) and were treated with sample for 1 h prior to LPS (1 μg/mL) stimulation for 24 h. The negative control was treated with serum-free media. The amount of nitrite, a stable metabolite of NO, was measured by using Griess reagent (1% sulfanilamide and 0.1% naphthylethylenediamine dihydrochloride in 2.5% phosphoric acid). Absorbance was subsequently measured at 540 nm using an ELISA reader. The quantity of nitrite was determined from a standard curve for sodium nitrite.

The test system of experiment [2] is RAW 264.7 cells. The experiment can be described thus: Cell cytotoxicity assay (MTT). It counts as cell-based, murine. The settings on record: Mus musculus, RAW264.7. The method, then:
RAW 264.7 cells were plated at a density of 5 × 10^4 cells/well in 96-well plates. Cells were treated with samples for 1 h prior to LPS (1 μg/mL) stimulation for 24 h. MTT (5 mg/mL in PBS) was added to each well and incubated for 2 hr. The medium was removed from the wells by aspiration, DMSO was added to each well, and the plate was shaken. The absorbance of each well was measured at a wavelength of 540 nm using an ELISA reader. Data are presented as the mean ± standard deviation of three replicates.

The nature of experiment [3]: DPPH radical scavenging activity assay. The settings on record: for IC50: Table 3, isolated compounds; for DPPH radical scavenging activity (in words): Figure 4. How it is done:
DPPH radical scavenging activity was measured by using the method described by Blois and Ozgen et al.. DPPH solution dissolved in methanol was added to the sample, which was diluted to the required concentration, and the reaction was carried out at room temperature for 30 min. Absorbance was measured at 517 nm using an ELISA reader. The antioxidant butylated hydroxyanisole (BHA) was used as a positive control, and the IC50 value of the sample was determined.

In experiment [4] the target is elastase (Sus scrofa, UniProt P00772). Description: Elastase inhibition assay. It counts as biochemical. How it is done: The reaction was carried out in 0.5 mM Tris buffer (pH 8.5) containing 1 mg/mL N-succinyl-(Ala)3-p-nitroanilide and 0.6 unit/mL elastase. The reaction mixture was incubated at 25°C for 10 min. The test samples were assayed for elastase inhibition by measuring its effect on elastase activity using an ELISA reader at 405 nm. Ursolic acid was used as a positive control, and the IC50 value of the sample was determined.

The target of experiment [5] is mushroom tyrosinase. Description: Tyrosinase inhibition assay. The following applies: for IC50: Table 3, isolated compounds. Format: biochemical. How it is done: Tyrosinase inhibitory activity was measured by using the method described by Yagi et al.. The reaction was carried out in 0.1 M potassium phosphate buffer (pH 6.5) containing 1.5 mM L-tyrosine and 1250 units/mL mushroom tyrosinase. The reaction mixture was incubated at 37°C for 20 min. The test samples were assayed for tyrosinase inhibition by measuring its effect on tyrosinase activity using SpectraMax 190PC microplate ELISA reader at 490 nm.

The nature of experiment [6]: ABTS radical scavenging activity. The method, then:
ABTS radical scavenging activity was measured by using a previously described method. ABTS+ was formed by mixing 7 mM ABTS solution and 2.45 mM potassium persulfate (K2S2O8) solution with ABTS: K2S2O8 (2 : 1 ratio) for 12–16 h to form a cation (ABTS^+). The absorbance was measured at 734 nm using an ELISA reader. BHA, an antioxidant, was used as the positive control.

Where [7] appears, read: Mus musculus, RAW264.7, Table 3, isolated compounds, read-out: NO assay IC50.
Where [8] appears, read: Table 3, isolated compounds, read-out: MTT assay IC50.
The mark [9] stands for this setting: Table 3, isolated compounds, read-out: Elastase inhibition assay IC50.

Sequence of elastase (P00772 27-266): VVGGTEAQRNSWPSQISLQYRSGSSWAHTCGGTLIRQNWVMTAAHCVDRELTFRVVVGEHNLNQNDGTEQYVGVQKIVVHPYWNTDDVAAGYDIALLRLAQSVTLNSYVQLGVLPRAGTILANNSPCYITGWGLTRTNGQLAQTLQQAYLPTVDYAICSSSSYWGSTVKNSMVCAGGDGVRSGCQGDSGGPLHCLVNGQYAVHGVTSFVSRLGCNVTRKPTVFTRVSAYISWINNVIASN

Turning to `[H]/N=C(/NC)NCCC[C@H](N)C(=O)O` [L-NMMA, reference compound], the IC50 in experiment [1] (Mus musculus, RAW264.7, Table 2 positive control, read-out: Anti-inflammatory NO, positive control) is 37.6 µM; in experiment [1] (Mus musculus, RAW264.7, Table 1 positive control, read-out: Anti-inflammatory NO (IC50), positive control), 36.3 µM; in experiment [1] (setting [7]) it was 14.6 µM; in experiment [2] (Table 1 positive control, read-out: Anti-inflammatory MTT, positive control), above 100 µM; in experiment [2] (setting [8]), above 100 µM.

Consider `COC(=O)C1OC(Oc2c(-c3ccc(O)c(O)c3)oc3cc(O)cc(O)c3c2=O)C(O)C(O)C1O` (stereo not drawn) [Compound 6, quercetin-3-(6-methylglucuronide)], for which the IC50 was above 100 µM in experiment [1] (setting [7]); above 1000 µM in experiment [3]; above 1000 µM in experiment [4] (setting [9]); above 100 µM in experiment [5]; above 100 µM in experiment [2] (setting [8]).

In the case of `COC(=O)C1OC(Oc2c(-c3ccc(O)cc3)oc3cc(O)cc(O)c3c2=O)C(O)C(O)C1O` (stereo not drawn) [Compound 5, kaempferol-3-(6-methylglucuronide)], the IC50 in experiment [1] (setting [7]) is above 100 µM; in experiment [3], 37 µM; in experiment [3] (listed as Comp. 5), 36.99 ± 0.16 µM; in experiment [4] (setting [9]), above 1000 µM; in experiment [5] it was above 100 µM; in experiment [2] (setting [8]), above 100 µM. The “DPPH radical scavenging activity (in words)” value in experiment [3] was “excellent antioxidant activity”.

For the molecule `O=C(O)C1OC(Oc2c(-c3ccc(O)c(O)c3)oc3cc(O)cc(O)c3c2=O)C(O)C(O)C1O` (stereo not drawn) [Compound 3, quercetin-3-O-glucuronide], the IC50 in experiment [1] (setting [7]) is above 100 µM; in experiment [3], 31.2 µM; in experiment [3] (listed as Comp. 3), 31.2 ± 0.47 µM; in experiment [4] (setting [9]), above 1000 µM; in experiment [5] it was above 100 µM; in experiment [2] (setting [8]) it was above 100 µM.

As for `O=c1c(O[C@@H]2O[C@H](CO)[C@@H](O)[C@H](O)[C@H]2O)c(-c2ccc(O)c(O)c2)oc2cc(O)cc(O)c12` [Compound 2, quercetin-3-O-glucoside], the IC50 in experiment [1] (setting [7]) was above 100 µM; in experiment [3], 39.6 µM and 39.4 µM; in experiment [3] (listed as Comp. 2) it was 39.6 ± 4.1 µM; in experiment [4] (setting [9]), above 1000 µM; in experiment [5], above 100 µM; in experiment [2] (setting [8]) it was above 100 µM. Moreover, the “DPPH radical scavenging activity (in words)” value in experiment [3] was “excellent antioxidant activity”.

For `OC[C@H]1O[C@@H](Oc2ccc(O)cc2)[C@H](O)[C@@H](O)[C@@H]1O` [Arbutin, reference compound], the “Whitening Tyrosinase assay (IC50)” value in experiment [5] (Table 1, methanol extracts, L-tyrosine substrate) is recorded as “Arbutin 135.0 ± 19.9 μg/mL”.

On to `C[C@H]1[C@H](C)CC[C@]2(C(=O)O)CC[C@]3(C)C(=CC[C@@H]4[C@@]5(C)CC[C@H](O)C(C)(C)[C@@H]5CC[C@]43C)[C@H]12` [Ursolic acid, reference compound], for which the IC50 in experiment [4] (Table 1, methanol extracts, read-out: Anti-wrinkle Elastase assay (IC50)) turned out to be 116 µM; in experiment [4] (Table 2, fractions, unit inferred, read-out: Antiwrinkle Elastase assay) it was 85.3 µM; in experiment [4] (setting [9]), 86.3 µM.

For `COc1ccc(O)c(C(C)(C)C)c1` [BHA, butylated hydroxyanisole, reference compound], the “Antioxidant DPPH (IC50)” value in experiment [3] (Table 1, methanol extracts, 30 min, 517 nm) was “BHA 15.6 ± 0.2 μg/mL”. In addition, the “Antioxidant DPPH” value in experiment [3] (Table 2, fractions) is “BHA 14.58 ± 0.06 μg/mL”. For the same molecule, the IC50 in experiment [3] was 272 µM. Also, the “Antioxidant ABTS (IC50)” value in experiment [6] (Table 1, methanol extracts, 734 nm) is recorded as “BHA 2.9 ± 0.1 μg/mL”. Moreover, in experiment [6] (Table 2, fractions), the “Antioxidant ABTS” value was “BHA 4.03 ± 0.05 μg/mL”.

In the case of `CC1(C)C[C@H](O)C[C@@]2(C)OC(=O)C=C12` [Compound 1, loliolide], the IC50 in experiment [1] (setting [7]) was above 100 µM; in experiment [3] it was above 1000 µM; in experiment [4] (setting [9]), above 1000 µM; in experiment [5] it was above 100 µM; in experiment [2] (setting [8]), above 100 µM.

Regarding `COc1ccc(/C=C/C(=O)OC(C(=O)O)C(O)C(=O)O)cc1O` (stereo not drawn) [Compound 4, 4-methoxy caftraric acid], the IC50 in experiment [1] (setting [7]) is above 100 µM; in experiment [3] it was above 1000 µM; in experiment [4] (setting [9]), above 1000 µM; in experiment [5], above 100 µM; in experiment [2] (setting [8]) it was 84.6 ± 9.85 µM.

Turning to `O=c1c(O)c(-c2ccc(O)c(O)c2)oc2cc(O)cc(O)c12` [Compound 7, quercetin], the IC50 in experiment [1] (setting [7]) was 29.7 µM; in experiment [1] (Table 3, isolated compounds, listed as Comp. 7, read-out: NO assay IC50), 29.7 ± 7.07 µM; in experiment [3] it was 22.7 µM; in experiment [3] (listed as Comp. 7) it was 22.7 ± 0.53 µM; in experiment [2] (setting [8]), above 100 µM.

These data come from PMC7769672, “Skin-Related Properties and Constituents from the Aerial Parts Extract of Persicaria senticosa” (Oxidative Medicine and Cellular Longevity, 2020).
